Measurements taken from patent publication US20220220100A1 (SOLUTIA CANADA INC., priority 2019, published 2022).

Legend:
Assay type in all cases: physicochemical
[1] = Photostationary state (PSS) and lambda max under simulated sunlight (solar simulator)
In short: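 Compound at 2×10^−5 M in solvent was first photofaded with visible light until visible absorption stabilized, then irradiated with simulated sunlight (xenon-arc solar simulator) until the UV/Vis spectrum stabilized. A second sample was run the same way with a UV-blocking film in the light path.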

[2] = Oxidation potential of ring-closed and ring-open isomers; settings: no unit printed in table (V relative to Ag/AgCl)
[3] = Solubility in Rhodiasolv IRIS solvent; settings: Rhodiasolv IRIS (dimethyl-2-methyl glutarate); wt %
Source text: A compound with greater solubility allows for a formulation or material with a greater concentration of coloured molecule to be incorporated into a composition. This may allow for increasing the contrast ratio for a compound with a lesser absorbance at PSS. Examples of solubilizing groups for the compound include alkoxy, ether, ester or siloxy groups. In various embodiments, compounds may be soluble in the solvent component at room temperature at about 6 wt %, 7 wt %, 8 wt %, 9 wt %, 10 wt % or greater for testing to determine whether a compound has application as an exterior glazing or optical filter. If the solubility of a compound in the solvent component is too low, then insufficient darkening may be achieved in the ring-closed configuration, depending on conditions of use for the compound.
Chromophore solutions in Rhodiasolv IRIS were prepared at 1 to 10 wt % loading. Solutions were prepared in a glovebox by charging the chromophore and Rhodiasolv IRIS to a trace-clean vial, and the solution was stirred on a hotplate at 90° C. for 2-24 hours. After cooling, the chromophore solution was injected into glass weathering cells and the fill and vent ports were sealed with a thin disc of Kalrez (FFKM Perfluorinated Elastomer) and secured with a clamp and set-screw. The weathering cells were filled and sealed inside the glove box.

## COc1cc2oc(-c3ccc(C(C)(C)C)cc3)c(C3=C(c4cc(-c5cc6c(s5)C(C)(C)CCCC6(C)C)sc4-c4cc5c(s4)C(C)(C)CCCC5(C)C)C(F)(F)C(F)(F)C3(F)F)c2cc1OC [Chromophore S405]
[1]; absorbance at photostationary state, simulated sunlight (solar simulator), 2×10^−5 M solution
  PSS (SS): 0.381
[1]; peak in the visible range, ring-closed (dark) state
  λmax (nm): 598 nm
[2]; ring-closed isomer
  RC [O] (oxidation potential of ring-closed isomer): 0.91
[2]; ring-open isomer
  RO [O] (oxidation potential of ring-open isomer): 1.28
[3]
  Solubility in Rhodiasolv IRIS: >1%
